Like-named read-outs stand apart in the source and are kept apart here.
Legend:
[1] = tested on: antibody core fucosylation in CHO DG44 cell line producing h1F6; assay: Effect of fucose analogs on antibody core fucosylation (h1F6 from CHO DG44 culture); type: cell-based, Chinese hamster; settings: day 5; for inhibition at 50 µM: 50 μM fucose analog; for Inhibition at 1 mM / inhibition at 1000 µM: 1 mM fucose analog
Procedure: Media was supplemented with insulin like growth factor (IGF), penicillin, streptomycin and either 1 mM or 50 μM of the fucose analog (prepared as described supra). On day 5 post inoculation, the culture was centrifuged at 13000 RPM for 5 minutes to pellet cells; antibodies were then purified from supernatant.
(§1) Antibody purification was performed by applying the conditioned media to protein A resin pre-equilibrated with 1× phosphate buffered saline (PBS), pH 7.4. After washing resin with 20 resin bed volumes of 1×PBS, antibodies were eluted with 5 resin bed volumes of Immunopure IgG elution buffer (Pierce Biotechnology, Rockford, Ill.). A 10% volume of 1M tris pH 8.0 was added to neutralize the eluted fraction.

[2] = tested on: CHO DG44 cell line producing h1F6; assay: Incorporation of fucose analogs into antibodies (h1F6 from CHO DG44 culture); type: cell-based, Chinese hamster
Procedure: The effects of fucose analogs on antibody core fucosylation were tested at concentrations of […] and 1 mM as follows: A CHO DG44 cell line producing a humanized IgG1 anti-CD70 monoclonal antibody, h1F6 (see International Patent Publication WO 06/113909) was cultured at 7.5×10^5 cells per mL in 2 mLs of CHO culture media at 37°, 5% CO2 and shaking at 100 RPM in a 6 well tissue culture plate. Media was supplemented with insulin like growth factor (IGF), penicillin, streptomycin and either 1 mM or 50 μM of the fucose analog (prepared as described supra). On day 5 post inoculation, the culture was centrifuged at 13000 RPM for 5 minutes to pellet cells; antibodies were then purified from supernatant.
as §1, with “fraction. The amount of non-core fucosylated antibody produced was determined as described in Example 7.” for “fraction.”
Certain other fucose analogs were tested for their ability to be incorporated into antibodies. These fucose analogs were tested at concentrations of 50 μM and 1 mM using the methodology as described above and in Example 7.

[3] = Cricetulus griseus, CHO-DG44, 120 h, Table 1, inhibition of core fucosylation of h1F6, read-out: Inhibition at 50 μM
[4] = Cricetulus griseus, CHO-DG44, 120 h, Table 1, ND = non-core fucosylated antibody not detected due to poor antibody production or inhibition of cell growth
[5] = Cricetulus griseus, CHO-DG44, 120 h, Table 2, read-out: Inhibition at 50 μM
[6] = Cricetulus griseus, CHO-DG44, 120 h, Table 2
[7] = Table 1, inhibition of core fucosylation of h1F6
[8] = Table 1, ND = non-core fucosylated antibody not detected due to poor antibody production or inhibition of cell growth

SMILES	inhibition at 50 µM [1, 3] [%]	inhibition at 1000 µM [1, 4] [%]	inhibition at 50 µM [1, 5] [%]	inhibition at 1000 µM [1, 6] [%]	further results
CC(=O)OC1C(C)OC(F)C(F)C1OC(C)=O (stereo not shown) [1,2-difluoro-1,2-didexoy fucose peracetate]					inhibition at 50 µM ([1]; Table 2): >80%; Inhibition at 1 mM ([1]; Table 2): >80%
C#C[C@H](OC(C)=O)[C@H]1OC(OC)[C@@H](OC(C)=O)[C@@H]1OC(C)=O (stereo partly drawn) [1-methyl-2,3,4-triacetyl alkynyl fucose, (2R,3R,4S)-2-((S)-1-acetoxyprop-2-ynyl)-5-methoxy-tetrahydrofuran-3,4-diyl Diacetate]	68	> 80			
CC(=O)OC1O[C@@H](C)[C@@H](OC(C)=O)[C@@H](OC(C)=O)[C@@H]1Cl (stereo partly drawn) [2-deoxy-2-chlorofucose triacetate, L-2-deoxy-2-chlorofucopyranose-1,3,4-triacetate]			17	> 80	
CC(=O)OC1O[C@@H](C)[C@@H](OC(C)=O)[C@@H](OC(C)=O)[C@@H]1F (stereo partly drawn) [2-deoxy-2-fluorofucose peracetate, (3S,4R,5R,6S)-3-fluoro-6-methyl-tetrahydro-2H-pyran-2,4,5-triyl Triacetate]			> 80	> 80	
C[C@H](O)[C@@H](O)[C@@H](O)[C@H](F)C=O [2-deoxy-2-fluorofucose]			> 80	> 80	
CC(=O)OC1O[C@@H](COCc2ccccc2)[C@@H](OC(C)=O)[C@@H](OC(C)=O)[C@@H]1OC(C)=O (stereo partly drawn) [5-Benzyloxy fucose peracetate, (3S,4R,5R,6S)-6-(benzyloxymethyl)tetrahydro-2H-pyran-2,3,4,5-tetrayl tetraacetate]			0	75	
CC(=O)OC(C#N)[C@H]1OC(OC(C)=O)[C@@H](OC(C)=O)[C@@H]1OC(C)=O (stereo partly shown) [5-cyanoarabinofuranose tetraacetate]	5 to 10				
CC(=O)OC1OC(C#N)[C@@H](OC(C)=O)[C@@H](OC(C)=O)[C@@H]1OC(C)=O (stereo partly shown) [5-cyanoarabinopyranose tetraacetate]	20				
CC(=O)OC1O[C@@H]([C@]2(C)CO2)[C@@H](OC(C)=O)[C@@H](OC(C)=O)[C@@H]1OC(C)=O (stereo partly drawn) [5-methyloxiran-arabinose tetraacetate, (3S,4R,5S,6R)-6-((S)-2-methyloxiran-2-yl)-tetrahydro-2H-pyran-2,3,4,5-tetrayl tetraacetate]	~0	35 to 40			
CC#CC(OC(C)=O)[C@@H](OC(C)=O)[C@@H](OC(C)=O)[C@@H](C=O)OC(C)=O (stereo partly shown) [5-propynyl fucose tetraacetate, 5-propynylarabinose tetraacetate]	50	> 80			
C=CC1OC(OC(C)=O)C(OC(C)=O)C(OC(C)=O)C1OC(C)=O (stereo not shown) [5-vinyl fucose tetraacetate, 5-ethylenylarabinose tetraacetate]					inhibition at 50 µM [1, 7]: ~0%; Inhibition at 1 mM [1, 8]: ~4%
CC(=O)OC1O[C@@H](C(F)F)[C@@H](OC(C)=O)[C@@H](OC(C)=O)[C@@H]1OC(C)=O (stereo partly drawn) [6,6-difluorofucose tetraacetate, (3S,4R,5S,6R)-6-(difluoromethyl)tetrahydro-2H-pyran-2,3,4,5-tetrayl Tetraacetate]			> 80	> 80	
CC(=O)O[C@H]([C@H](OC(C)=O)[C@H](CBr)OC(C)=O)[C@@H](C=O)OC(C)=O [6-bromo-fucose tetraacetate, 6-bromofucose tetraacetate]	50	80			% Incorporation ([2]; 50 uM): ~50%; % Incorporation ([2]; 1 mM): (50 uM; 20% at 1 mM)
CC(=O)O[C@H]([C@H](OC(C)=O)[C@H](CCl)OC(C)=O)[C@@H](C=O)OC(C)=O [6-chloro-fucose tetraacetate, 6-chlorofucose tetraacetate]	20	20 to 30			
CC(=O)O[C@H]([C@H](OC(C)=O)[C@H](CC#N)OC(C)=O)[C@@H](C=O)OC(C)=O [6-cyano fucose tetraacetate, 6-cyanofucose tetraacetate]	30	> 80			
CC(=O)O[C@H]([C@H](OC(C)=O)[C@H](CI)OC(C)=O)[C@@H](C=O)OC(C)=O [6-iodo-fucose tetraacetate, 6-iodofucose tetraacetate]	3	30			
CC(=O)O[C@@H]1[C@H](C)O[C@H](OC(C)=O)C(F)(F)[C@@H]1OC(C)=O [(2R,4R,5R,6S)-3,3-difluoro-6-methyl-tetrahydro-2H-pyran-2,4,5-triyl Triacetate]			0	75	
CC(=O)O[C@@H]1[C@H](C)O[C@@H](OC(C)=O)C(F)(F)[C@@H]1OC(C)=O [(2S,4R,5R,6S)-3,3-difluoro-6-methyl-tetrahydro-2H-pyran-2,4,5-triyl Triacetate]			0	64	
CC(=O)O[C@H]1C[C@H](OC(C)=O)[C@H](OC(C)=O)[C@H](C)O1 [(2S,4S,5R,6S)-6-methyl-tetrahydro-2H-pyran-2,4,5-triyl Triacetate]			0	36	
C#CC1OC(OC(=O)C(C)(C)C)C(OC(=O)C(C)(C)C)C(OC(=O)C(C)(C)C)C1O (stereo not shown) [Alkynyl fucose 1,2,3-(trimethylacetate), 5-ethynylarabinose 1,2,3-(trimethylacetate)]					inhibition at 50 µM [1, 7]: ~0%
C#CC1OC(OC(=O)C(C)(C)C)C(O)C(OC(=O)C(C)(C)C)C1O (stereo not shown) [Alkynyl fucose di(trimethylacetate), 5-ethynylarabinose 1,3-(trimethylacetate)]					inhibition at 50 µM [1, 7]: >80%
C#C[C@@H]1OC(OC(=O)c2cccnc2)[C@@H](OC(=O)c2cccnc2)[C@H](OC(=O)c2cccnc2)[C@@H]1OC(=O)c1cccnc1 (stereo partly drawn) [Alkynyl fucose pemicotinate, (3S,4R,5R,6S)-6-ethynyl-tetrahydro-2H-pyran-2,3,4,5-tetrayl Tetranicotinate]	> 80	> 80			
C#C[C@@H]1OC(OC(=O)CCOCCOC)[C@@H](OC(=O)CCOCCOC)[C@H](OC(=O)CCOCCOC)[C@@H]1OC(=O)CCOCCOC (stereo partly drawn) [Alkynyl fucose per-PEG ester, (3S,4R,5R,6S)-6-ethynyl-tetrahydro-2H-pyran-2,3,4,5-tetrayl tetrakis(3-(2-methoxyethoxy)propanoate)]	> 80	> 80			
C#C[C@@H]1OC(OC(=O)C(C)C)[C@@H](OC(=O)C(C)C)[C@H](OC(=O)C(C)C)[C@@H]1OC(=O)C(C)C (stereo partly drawn) [Alkynyl fucose perisobutanoate, (3S,4R,5R,6S)-6-ethynyl-tetrahydro-2H-pyran-2,3,4,5-tetrayl tetrakis(2-methylpropanoate)]	> 80	> 80			
C#C[C@H]1OC(OC(=O)c2ccncc2)[C@@H](OC(=O)c2ccncc2)[C@H](OC(=O)c2ccncc2)[C@@H]1OC(=O)c1ccncc1 (stereo partly drawn) [Alkynyl fucose perisonicotinate, (3S,4R,5R,6R)-6-ethynyl-tetrahydro-2H-pyran-2,3,4,5-tetrayl Tetraisonicotinate]	> 80	> 80			
C#CC(OC(=O)CCCCC)[C@@H](OC(=O)CCCCC)[C@@H](OC(=O)CCCCC)[C@@H](C=O)OC(=O)CCCCC (stereo partly shown) [Alkynyl fucose tetra-n-hexanoate, 5-ethynylarabinose tetrahexanoate]	> 80	> 80			
C#C[C@@H]1OC(OC(=O)CC)[C@@H](OC(=O)CC)[C@H](OC(=O)CC)[C@@H]1OC(=O)CC (stereo partly shown) [Alkynyl fucose tetrapropanonate, 5-ethynylarabinose tetrapropropanoate]					inhibition at 50 µM [1, 7]: >80%; Inhibition at 1 mM [1, 8]: >80%
C#CC(O)[C@@H](O)[C@@H](O)[C@H](O)C=O (stereo partly shown) [Alkynyl fucose, 5-ethynylarabinose]	> 80				
C=C=C[C@@H]1OC(OC(C)=O)[C@@H](OC(C)=O)[C@H](OC(C)=O)[C@@H]1OC(C)=O (stereo partly drawn) [Allene, (3S,4R,5R,6S)-6-(propa-1,2-dienyl)-tetrahydro-2H-pyran-2,3,4,5-tetrayl Tetraacetate]			23	34	

From US11319526B2, “Methods and compositions for making antibodies and antibody derivatives with reduced core fucosylation” (Seagen Inc., priority 2008, dated 2022)
